Reference: patent EP2093288A1, “NOVEL DIPEPTIDE-DIGESTING ENZYME, METHOD OF PRODUCING THE SAME, METHOD OF ASSAYING GLYCATED PROTEIN BY USING THE DIPEPTIDE-DIGESTING ENZYME AND REAGENT COMPOSITION TO BE USED THEREIN” (Amano Enzyme Inc., priority 2006, dated 2008)
Where two headings read alike, the source gives them in different places. Non-standard residues stand in square brackets, D forms with d. Residues, ends and D or L forms follow the SMILES beside them. *: point of attachment. Sta = CC(C)C[C@H](N)[C@@H](O)CC(=O)O; Isovaleryl = CC(C)CC(=O)*

How the values were obtained:
Format in all cases: biochemical, Sphingopyxis chilensis No. 0522
[1] = tested on: dipeptide-degrading enzyme; assay: Influence of metal ions and the like on enzymatic activity (dipeptide-degrading activity, Example 3 method)
Experimental: (§1) The dipeptide-degrading activity may be measured by quantifying Fru-Val or histidine formed upon the degradation of Fru-Val-His. The method for quantifying histidine is described below. The amount of enzyme degrading 1 µmol of Fru-Val-His in 1 minute is defined as 1 unit of enzymatic activity (U). The reagents (1), (2), and (3), and a substrate solution used for measuring the activity were prepared as described below.
(§2) Substrate solution: Fru-Val-His (Peptide Institute Inc.) was dissolved in 100 mM of a MOPS buffer (pH 7.0), thus obtaining 40 mM of substrate solution.
0.02 mL of 1.40 mM substrate solution and 0.16 mL of the reagent (1) were accurately dispensed and mixed, and preincubated at 37°C for 5 minutes. Thereafter, 0.02 mL of enzyme solution was accurately added to and mixed with the mixture, and allowed to react at 37°C. As a blank test, 0.02 mL of the reagent (1) was added in place of the enzyme solution. After a lapse of 10 minutes, 0.8 mL of the reagent (3) was accurately added to and mixed with the mixture, and allowed to react at 37°C. After a lapse of 15 minutes, the absorbance at 505 nm was measured, and the dipeptide-degrading activity was calculated according to the calculation formula described below. The enzyme solution was appropriately diluted with the reagent (1) such that ΔABS = (As-Ab) ≤ 0.50 Abs, and used as the sample. The symbols and numerical values in the calculation formula represents the followings. • As: absorbance of enzyme solution • Ab: absorbance of blank solution • ΔABS: As - Ab • 12.88: millimole absorptivity (mmol/L/cm) of quinone pigment at 505 nm • 10: reaction time (min) • 2: coefficient representing that one molecule of quinone pigment is formed from two molecules of H2O2 • 1: light path length (cm) • 1.0: total amount of reaction solution (mL) • 0.02: Amount of enzyme solution used for reaction (mL) • n: enzyme solution dilution ratio
Calculation formula Activity(U/mL) = ΔABS/10/12.88 × 2 × 1 × 1.0/0.02 × n [formula]
The enzymatic activity was measured in the same manner as Example 3, except that the reagent (1) was replaced with various metals and the like at specified concentrations (Table 2) and a 100 mM PIPES buffer (pH 6.2) containing 0.1% Triton X-100.

[2] = tested on: dipeptide-degrading enzyme; assay: Substrate specificity: dipeptide-degrading activity measurement of Example 3 with changed substrate; conditions: substrate changed from Fru-Val-His; 37°C, pH 6.2
Experimental: as §1, §2
0.02 mL of 1.40 mM substrate solution and 0.16 mL of the reagent (1) were accurately dispensed and mixed, and preincubated at 37°C for 5 minutes. Thereafter, 0.02 mL of enzyme solution was accurately added to and mixed with the mixture, and allowed to react at 37°C. As a blank test, 0.02 mL of the reagent (1) was added in place of the enzyme solution. After a lapse of 10 minutes, 0.8 mL of the reagent (3) was accurately added to and mixed with the mixture, and allowed to react at 37°C. After a lapse of 15 minutes, the absorbance at 505 nm was measured, and the dipeptide-degrading activity was calculated according to the calculation formula described below. The enzyme solution was appropriately diluted with the reagent (1) such that ΔABS = (As-Ab) ≤ 0.50 Abs, and used as the sample. […]

[3] = tested on: dipeptide-degrading enzyme; assay: Reactivity in actual measurement system for glycosylated dipeptide (Example 15 method, reagents E, B, C, absorbance at 555 nm)
Experimental: A glycosylated dipeptide was measured using a glycosylated hemoglobin β chain dipeptide Fru-Val-His (Peptide Institute Inc.). The reagents B and C were prepared according to the following recipes, and used for the study. Since the specimen was a glycosylated dipeptide, no protease was necessary. Therefore, the reagent E used herein had the same composition with the reagent A except that no protease was used. However, the glycosylated dipeptide may be quantified only with the reagents B and C without using the reagent E. The dipeptide-degrading enzyme used herein is the purified enzyme obtained in Example 6.
40 mM Fru-Val-His was prepared, and diluted with a 100 mM MOPS buffer (pH 7.0), thus making 0.1, 0.2, 0.4, 0.6, and 0.8 mM Fru-Val-His solutions. To 0.01 mL each of the diluting solutions, 0.04 mL of the reagent E was added, and allowed to react at 37°C for 5 minutes. 0.1 mL of the reagent B was added to each of the reaction liquids, and allowed to react at 37°C for 10 minutes. Thereafter, 0.9 mL of the reagent C was added to each of the reaction liquids, and allowed to react at 37°C. The absorbance at 555 nm was measured, and the increase (ΔOD) of the absorbance 5 minutes after initiation of the reaction was determined. […]

[4] = Conc. 2mM, 100 mM PIPES buffer (pH 6.2), 0.1% Triton X-100, None = 100
[5] = Conc. 1mM, 100 mM PIPES buffer (pH 6.2), 0.1% Triton X-100, None = 100
[6] = Conc. 50mM, 100 mM PIPES buffer (pH 6.2), 0.1% Triton X-100, None = 100

Molecule | Relative activity (%) [1, 4] | Relative activity (%) [1, 5] | also measured
OCCS [2-Mercaptoethanol] | 11% |  | 
[Ba+2].[Cl-].[Cl-] [BaCl2] |  | 105% | 
[Ca+2].[Cl-].[Cl-] [CaCl2] |  | 162% | 
[Cl-].[Cl-].[Co+2] [CoCl2] |  | 676% | influences of the metal ions and the like on the enzymatic activity ([1]; summary in words of Table 2): activated
[Cl][Cu][Cl] [CuCl2] |  | 75% | 
O=C(O)CN(CCN(CC(=O)O)CC(=O)O)CC(=O)O [EDTA] |  |  | influences of the metal ions and the like on the enzymatic activity [1]: deactivated; Relative activity (%) ([1]; pH 6.2, 5000 µM): 1%
CC(C)C[C@H](NC(=O)[C@@H](NCC(=O)[C@@H](O)[C@H](O)[C@H](O)CO)C(C)C)C(=O)O [Fru-Val-Leu, fructosyl valyl leucine] |  |  | activity value of the dipeptide-degrading enzyme for the substrate, relative to that for Fru-Val-His [2]: 4.9%; absorbance change converted into the Fru-Val-His concentration ([3]; 0.8 mM substrate, converted using Fig. 7): 0.14 mM; reactivity ([3]; for the 0.8 mM substrate, relative to Fru-Val-His): 18%
[Cl-].[Cl-].[Mg+2] [MgCl2] |  | 261% | influences of the metal ions and the like on the enzymatic activity ([1]; summary in words of Table 2): activated
[Cl][Mn][Cl] [MnCl2] |  | 137% | 
O=C(O)CI [Monoiode acetate] |  |  | Relative activity (%) ([1]; pH 6.2, 2000 µM): 111%
[Cl][Ni][Cl] [NiCl2] |  | 156% | 
O=S(=O)(F)Cc1ccccc1 [PMSF] | 97% |  | 
CC(C)CC(=O)N[C@H](C(=O)N[C@H](C(=O)N[C@@H](CC(C)C)[C@@H](O)CC(=O)N[C@@H](C)C(=O)N[C@@H](CC(C)C)[C@@H](O)CC(=O)O)C(C)C)C(C)C [Pepstatin A] (Isovaleryl-VV[Sta]A[Sta]-OH) |  |  | Relative activity (%) ([1]; Conc. 10 µg/ml, 100 mM PIPES buffer (pH 6.2), 0.1% Triton X-100, None = 100): 100%
CCCCCCCCCCCCOS(=O)(=O)O [SDS] | 9% |  | 
O=P1([O-])OP(=O)([O-])OP(=O)([O-])OP(=O)([O-])OP(=O)([O-])OP(=O)([O-])O1.[Na+].[Na+].[Na+].[Na+].[Na+].[Na+] [Sodium Hexametaphosphate] | 4% |  | 
O=C(O)CS [Thioglycolic acid] | 3% |  | 
[Cl-].[Cl-].[Zn+2] [ZnCl2] |  | 257% | influences of the metal ions and the like on the enzymatic activity ([1]; summary in words of Table 2): activated
c1cnc2c(c1)ccc1cccnc12 [o-Phenanthroline] | 0% |  | 
c1ccc(-c2ccccn2)nc1 [α, α'-Dipyridyl] | 1% |  | influences of the metal ions and the like on the enzymatic activity ([1]; summary in words of Table 2): deactivated
KCl |  |  | Relative activity (%) [1, 6]: 97%
NH4Cl |  |  | Relative activity (%) [1, 6]: 85%
NaCl |  |  | Relative activity (%) ([1]; pH 6.2, 50000 µM): 98%
